Consider 16 compounds from patent publication US8268827B2, “Pyridazinone derivatives as PARP inhibitors” (Istituto di Ricerche di Biologia Molecolare P. Angeletti …, priority 2007, dated 2012).

pIC50: −log10 of the molar value. Read-outs that look alike come from different tables or passages of the source.

Assay [1] addresses T1, PARP-1 (Homo sapiens, UniProt P09874).
T1 construct: purchased Trevigen 4668-500-01
Briefly: PARP-1 TCA assay (inhibitory activity on human PARP-1). Type of assay: biochemical. As to conditions: human PARP-1, TCA assay. The protocol:
Inhibitory Activity on Human PARP-1
The study was designed to determine the potency of compounds for inhibiting poly(ADP-ribosylation) by hPARP1 upon presentation of a nicked DNA (i.e. Activated Calf Thymus). The IC50 was determined in a TCA assay looking at the incorporation of [^3H]-NAD into the growing Poly-ADP-ribose (PAR) polymers and detection of the radioactivity incorporated in a polymer by scintillation counting.
A 96 wells polypropylene microplate was prepared with serial dilutions of compounds (10 point over a 0.1 nM-50 nM concentration range 5% DMSO, 5 uL) or 5% DMSO. The enzymatic reaction was conducted in the presence of 25 mM Tris-HCl pH8.0, 1 mM MgCl2, 50 mM KCl, 1 mM Spermine, 0.01% Nonidet P-40, 1 mM DTT, 1 ug/ml activated Calf Thymus DNA (Amersham Biosciences 27-4575) and 1 nM of human PARP-1 enzyme (Trevigen 4668-500-01). The reaction was initiated by adding 1 ug/ml Activated Calf Thymus DNA (Amersham Biosciences 27-4575), 0.4 ul (2.2×10^5DPM) of [^3H]-NAD (250uCi/ml, Perkin Elmer NET-443H) and 1.5 uM NAD (Sigma #N-1511) in a total reaction volume of 50 ul. After 2 hours incubation at room temperature, the reaction was stopped by the addition of TCA (50 uL, 20%) and NaPPi (20 mM) and incubated for 10 min over ice. The resulting precipitate was filtered on Unifilter GF/B microplate (Perkin Elmer) and washed four times with 2.5% TCA using Harvester Filtermate 196 (Perkin Elmer). After addition of 50 ul of Microscint 20 (Perkin Elmer) the amount of radioactivity incorporated into the PARP polymers was read for each well on Perkin Elmer Top Count. IC50 was calculated using 4P logistic fitting with ADA software based on the residual enzyme activity in the presence of increasing concentrations of compounds.

For assay [2], the system named is BRCA-1 silenced HeLa cells (HeLa shBRCA1-GFP). Briefly: Proliferation assay in BRCA-1 silenced HeLa cells. Type of assay: cell-based. The conditions noted are these: Homo sapiens; for inhibition at 5 µM: read-out: % inh @ 5 uM (BRCA1-). In outline:
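HeLa cells with lentiviral shRNA BRCA1 knockdown (>80%), compared with control-vector HeLa, seeded at 300 cells/well. Compound exposure lasted 168 h at 37° C. Viability was read as resazurin-to-resorufin fluorescence (ex 550/em 590 nm).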

Assay [3] has as its system ischemia and reperfusion of the heart. The conditions noted are these: rabbits, cited from earlier work.
Assay [4] deals with T1, PARP-1. Briefly: PARP-1 SPA assay. Type of assay: biochemical. The gist of the method: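 PARP-1 reaction in Tris pH 8 buffer with MgCl2, spermine, KCl, activated calf thymus DNA and a mix of [3H]-NAD, NAD and biotinylated NAD, 2 h at RT. Stopped with EDTA/streptavidin SPA beads and poly(ADP-ribose) incorporation counted by scintillation.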
Where [5] appears, read: BRCA-1 silenced HeLa cells, read-out: BRCA1- CC50.
Setting [6] is: BRCA1 silenced HeLa cells, 168 hours, read-out: CC50 in the BRCA1 silenced HeLa cells.

T1 sequence (P09874 whole entry): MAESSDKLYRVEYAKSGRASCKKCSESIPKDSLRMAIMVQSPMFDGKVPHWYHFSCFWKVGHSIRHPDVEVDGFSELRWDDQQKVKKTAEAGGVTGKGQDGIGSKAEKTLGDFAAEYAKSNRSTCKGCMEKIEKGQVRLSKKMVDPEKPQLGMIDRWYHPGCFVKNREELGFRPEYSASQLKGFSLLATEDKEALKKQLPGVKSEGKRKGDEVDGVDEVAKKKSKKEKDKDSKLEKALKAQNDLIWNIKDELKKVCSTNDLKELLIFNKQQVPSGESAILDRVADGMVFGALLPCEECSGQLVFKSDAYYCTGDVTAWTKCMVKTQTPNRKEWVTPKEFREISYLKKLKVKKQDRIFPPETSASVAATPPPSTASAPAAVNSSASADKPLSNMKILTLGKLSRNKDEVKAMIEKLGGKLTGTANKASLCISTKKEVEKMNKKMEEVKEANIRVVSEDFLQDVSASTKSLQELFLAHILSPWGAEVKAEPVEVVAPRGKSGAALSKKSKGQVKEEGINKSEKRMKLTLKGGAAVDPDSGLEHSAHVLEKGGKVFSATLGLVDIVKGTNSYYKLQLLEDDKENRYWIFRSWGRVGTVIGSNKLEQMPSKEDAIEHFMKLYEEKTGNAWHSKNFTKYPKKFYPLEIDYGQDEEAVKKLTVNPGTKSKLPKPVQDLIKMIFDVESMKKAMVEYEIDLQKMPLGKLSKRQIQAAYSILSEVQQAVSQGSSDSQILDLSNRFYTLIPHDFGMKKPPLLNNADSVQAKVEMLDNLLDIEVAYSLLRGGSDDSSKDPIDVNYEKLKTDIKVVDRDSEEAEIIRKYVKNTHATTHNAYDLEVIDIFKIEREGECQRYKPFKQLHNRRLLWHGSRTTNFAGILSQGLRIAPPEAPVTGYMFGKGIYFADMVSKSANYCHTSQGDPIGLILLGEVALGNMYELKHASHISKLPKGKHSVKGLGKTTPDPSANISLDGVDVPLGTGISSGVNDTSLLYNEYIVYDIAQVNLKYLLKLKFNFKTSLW

On PARP-1 [1], `Cc1c(Cc2ccc(F)c(C(=O)N3CCN(c4ccc(F)cc4)CC3)c2)n[nH]c(=O)c1C` showed a pIC50 of 7.70. In addition, the inhibition at 5 µM in assay [2] (BRCA-1 silenced HeLa cells) came out at 52%.

On PARP-1 [1], `Cc1c(Cc2ccc(F)c(C(=O)N3CC=C(c4ccc(F)cc4)CC3)c2)n[nH]c(=O)c1C` gave a pIC50 of 7.70. In addition, the inhibition at 5 µM in assay [2] (BRCA-1 silenced HeLa cells) was determined as 45%.

`Cc1c(Cc2ccc(F)c(C(=O)N3CCN(C4CCCCC4)CC3)c2)n[nH]c(=O)c1C` showed a pIC50 on PARP-1 [1] of 8.13. Further, the CC50 in assay [2] (setting [5]) is 400 nM.

Consider `Oc1cccc2c(O)nccc12` [1,5-dihydroxyisoquinoline], for which the “reduction in infarct size” value in assay [3] (single injection 1 mg/kg) is 38-48%.

For the compound `NC(=O)c1cccc(N)c1` [3-amino-benzamide], the “reduction in infarct size in the heart” value in assay [3] (single injection 10 mg/kg, one minute before occlusion or one minute before reperfusion) was 32-42%.

In the case of `C[C@H]1CN(C(=O)c2cc(Cc3cc(C(F)(F)F)c(=O)[nH]n3)ccc2F)CC(=O)N1C1CCCC1` [Example 152, 6-(3-{[(3S)-4-cyclopentyl-3-methyl-5-oxopiperazin-1-yl]carbonyl}-4-fluorobenzyl)-4-(trifluoromethyl)pyridazin-3(2H)-one], the pIC50 on PARP-1 [4] was 7.60 to 8.30. The half-maximal cytotoxic concentration (CC50) in assay [2] (setting [6]) was below 5000 nM.

`COCCN1CCN(C(=O)c2cc(Cc3n[nH]c(=O)c(C)c3C)ccc2F)CC1=O` [Example 170, 6-(4-Fluoro-3-{[4-(2-methoxyethyl)-3-oxopiperazin-1-yl]carbonyl}benzyl)-4,5-dimethylpyridazin-3(2H)-one]: the pIC50 on PARP-1 [4] was 7.60 to 8.30. In addition, the CC50 in assay [2] (setting [6]) is below 5000 nM.

As to `CCOCCN1CCN(C(=O)c2cc(Cc3n[nH]c(=O)c(C)c3C)ccc2F)CC1=O` [Example 171, 6-(3-{[4-(2-Ethoxyethyl)-3-oxopiperazin-1-yl]carbonyl}-4-fluorobenzyl)-4,5-dimethylpyridazin-3(2H)-one], on PARP-1 [4], the negative logarithm of the IC50 (pIC50) is above 8.30. Further, the CC50 in assay [2] (setting [6]) is below 5000 nM.

Regarding `Cc1c(Cc2ccc(F)c(C(=O)N3CCN(CCOC(C)C)C(=O)C3)c2)n[nH]c(=O)c1C` [Example 172, 6-(4-Fluoro-3-{[4-(2-isopropoxyethyl)-3-oxopiperazin-1-yl]carbonyl}benzyl)-4,5-dimethylpyridazin-3(2H)-one], at PARP-1 [4], the pIC50 is 7.60 to 8.30. The 50% cytotoxic concentration (CC50) in assay [2] (setting [6]) is below 5000 nM.

For `Cc1c(Cc2ccc(F)c(C(=O)N3CC(=O)N(C4CCC4)[C@@H](C)C3)c2)n[nH]c(=O)c1C` [Example 176, 6-(3-{[(3S)-4-Cyclobutyl-3-methyl-5-oxopiperazin-1-yl]carbonyl}-4-fluorobenzyl)-4,5-dimethylpyridazin-3(2H)-one], at PARP-1 [4], the negative logarithm of the IC50 (pIC50) is 7.60 to 8.30. The half-maximal cytotoxic concentration (CC50) in assay [2] (setting [6]) was below 5000 nM.

As for `CC[C@H]1CN(C(=O)c2cc(Cc3n[nH]c(=O)c(C)c3C)ccc2F)CC(=O)N1C1CCC1` [Example 181, 6-(3-{[(3S)-4-Cyclobutyl-3-ethyl-5-oxopiperazin-1-yl]carbonyl}-4-fluorobenzyl)-4,5-dimethylpyridazin-3(2H)-one], on PARP-1 [4], the pIC50 is 7.60 to 8.30. Also, the cytotoxic concentration (CC50) in assay [2] (setting [6]) was below 5000 nM.

On PARP-1 [4], `Cc1c(Cc2ccc(F)c(C(=O)N3CC(=O)N(C4CCCC4)C(CC(C)C)C3)c2)n[nH]c(=O)c1C` (stereo not drawn) [Example 185, 6-{3-[(4-Cyclopentyl-3-isobutyl-5-oxopiperazin-1-yl)carbonyl]-4-fluorobenzyl}-4,5-dimethylpyridazin-3(2H)-one] showed a pIC50 of 6.82 to 7.60. The CC50 in assay [2] (setting [6]) was below 5000 nM.

As for `Cc1c(Cc2ccc(F)c(C(=O)N3CC(=O)N(C4CCCC4)[C@H](C(C)C)C3)c2)n[nH]c(=O)c1C` [Example 207, 6-(3-{[(3R)-4-Cyclopentyl-3-isopropyl-5-oxopiperazin-1-yl]carbonyl}-4-fluorobenzyl)-4,5-dimethylpyridazin-3(2H)-one], the negative logarithm of the IC50 (pIC50) against PARP-1 [4] is 7.60 to 8.30. Also, the CC50 in assay [2] (setting [6]) was below 5000 nM.

Regarding `Cc1c(Cc2ccc(F)c(C(=O)N3CCN(c4ccccc4)C(=O)C3)c2)n[nH]c(=O)c1C` [drawing 25], the pIC50 against PARP-1 [1] was 9.00. Moreover, in assay [2] (setting [5]), the CC50 stood at 18 nM.

The compound `Cc1c(Cc2ccc(F)c(C(=O)N3CCN(c4ccc(F)cc4)C(=O)C3)c2)n[nH]c(=O)c1C` [drawing 26] showed a pIC50 against PARP-1 [1] of 9.06. Also, the CC50 in assay [2] (setting [5]) is 96 nM.

As to `Cc1c(Cc2ccc(F)c(C(=O)N3CCN(C4CCCCC4)C(=O)C3)c2)n[nH]c(=O)c1C` [drawing 29], the pIC50 at PARP-1 [1] was 9.44. Further, the half-maximal cytotoxic concentration (CC50) in assay [2] (setting [5]) was 7 nM.
